Measurements: PubChem BioAssay AID2128 (The Scripps Research Institute Molecular Screening Center, 2009)

Target: Beta-lactamase (Pseudomonas aeruginosa) (UniProt Q932Y6)
Assay: Ki and modality of VIM-2 inhibitors – biochemical, probe results, mechanism study, late-stage follow-up (AID 2128)
Settings: purified enzyme, nitrocefin hydrolysis absorbance/fluorescence, enzyme assay, VIM-2 inhibition constant, kinetics

Compound `O=c1[nH]c2c(s1)C(c1cccnc1)C1C3CCC(C3)C1S2` (stereo unspecified) has a Ki of 148 nM.
